Structures can show the parent of a compound that is named as a salt.

Sequence of hERG (Q12809 whole entry): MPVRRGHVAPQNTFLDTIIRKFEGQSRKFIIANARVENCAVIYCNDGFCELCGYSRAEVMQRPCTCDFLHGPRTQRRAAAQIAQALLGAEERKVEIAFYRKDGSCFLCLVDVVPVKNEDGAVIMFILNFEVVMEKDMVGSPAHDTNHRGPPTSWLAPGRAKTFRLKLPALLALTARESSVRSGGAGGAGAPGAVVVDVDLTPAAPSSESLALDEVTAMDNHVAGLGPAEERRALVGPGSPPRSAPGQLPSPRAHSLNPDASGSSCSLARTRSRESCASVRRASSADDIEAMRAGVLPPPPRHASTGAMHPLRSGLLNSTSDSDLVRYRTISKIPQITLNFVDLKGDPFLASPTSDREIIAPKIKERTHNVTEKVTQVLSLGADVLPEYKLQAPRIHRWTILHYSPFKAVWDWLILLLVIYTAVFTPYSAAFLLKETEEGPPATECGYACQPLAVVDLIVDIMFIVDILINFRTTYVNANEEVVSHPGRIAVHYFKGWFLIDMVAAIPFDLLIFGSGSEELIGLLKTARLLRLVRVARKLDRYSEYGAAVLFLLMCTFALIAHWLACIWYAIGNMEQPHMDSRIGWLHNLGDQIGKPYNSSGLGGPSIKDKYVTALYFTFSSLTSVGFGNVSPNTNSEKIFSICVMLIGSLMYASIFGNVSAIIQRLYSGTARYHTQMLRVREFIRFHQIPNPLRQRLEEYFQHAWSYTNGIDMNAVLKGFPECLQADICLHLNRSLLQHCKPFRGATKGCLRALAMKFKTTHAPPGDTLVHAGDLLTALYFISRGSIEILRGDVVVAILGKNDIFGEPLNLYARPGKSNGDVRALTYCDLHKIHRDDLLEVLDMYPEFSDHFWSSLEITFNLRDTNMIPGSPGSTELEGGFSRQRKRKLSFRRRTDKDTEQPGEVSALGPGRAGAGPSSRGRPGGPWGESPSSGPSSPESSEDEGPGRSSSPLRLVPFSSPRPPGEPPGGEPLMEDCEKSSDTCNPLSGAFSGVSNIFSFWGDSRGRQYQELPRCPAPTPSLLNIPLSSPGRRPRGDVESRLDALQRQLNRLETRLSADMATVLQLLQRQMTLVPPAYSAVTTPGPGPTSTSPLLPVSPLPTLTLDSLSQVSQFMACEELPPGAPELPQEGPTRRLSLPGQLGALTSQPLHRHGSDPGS

This test has as its target hERG (Homo sapiens, UniProt Q12809). Description: cell-based. Conditions: (-LOG10(IC50), µM).
One may read the IC50 as the midpoint of a concentration-inhibition curve. Read a low IC50 as inhibition by little substance. The molecule `CC(C)OC(=O)c1cc(C(=O)OC(C)C)cc([N+](=O)[O-])c1` [Nitrothal-isopropyl] showed an IC50 of 40.6 µM. This lies in the double-digit micromolar range.

As for `N=C(N)NN=C(/C=C/c1ccc([N+](=O)[O-])o1)/C=C/c1ccc([N+](=O)[O-])o1` [Nitrovin], the IC50 was 2.3 µM.

Consider `CCN(CC)Cc1nccn1-c1ccc([N+](=O)[O-])cc1C(=O)c1ccccc1Cl` [Nizofenone fumarate], for which the IC50 was 6.74 µM.

The molecule `CN1Cc2c(N)cccc2C(c2ccccc2)C1` (stereo not drawn) [Nomifensine] had an IC50 of 38.9 µM. Compared with the last molecule, the IC50 is about 5.8-fold higher.

For the molecule `CCC(=O)C(CCN(C)C)(c1ccccc1)c1ccccc1` [Normethadone], the IC50 is 15.1 µM.

Molecule `CC(CCc1ccccc1)NC(C)C(O)c1ccc(O)cc1` (stereo not drawn) [Nylidrin] showed an IC50 of 5.56 µM.

The molecule `CCCCCCCCn1sccc1=O` [Octhilinone] gave a concentration for half-maximal inhibition (IC50) of 27.6 µM.

As to `CN1CCN(C2Cc3ccccc3Sc3ccc(Cl)cc32)CC1` (stereo not drawn) [Octoclothepine maleate], the midpoint of inhibition, the IC50, lay at 0.849 µM. Against the preceding molecule, the IC50 is about 33-fold lower.

For `CC(C)(C)CC(C)(C)c1ccc(O)c(-n2nc3ccccc3n2)c1` [Octrizole], the midpoint of inhibition, the IC50, lay at 14.5 µM. This IC50 is about 17-fold higher than that of the molecule before.

In the case of `CCCCC(CC)CN1C(=O)C2C3C=CC(C3)C2C1=O` (stereo not drawn) [Octylbicycloheptenedicarboximide], half-maximal inhibition (IC50) required 49 µM.

The molecule `C/C(=C(/OCCOc1ccc(Cl)cc1)c1ccc(Cl)cc1Cl)n1ccnc1` [Omoconazole] had an IC50 of 8.17 µM.

Molecule `CC(C)Oc1cc(-n2nc(C(C)(C)C)oc2=O)c(Cl)cc1Cl` [Oxadiazon] had a concentration for half-maximal inhibition (IC50) of 44.7 µM.

As for `C[N+]1(CC2COC(c3ccccc3)(C3CCCCC3)O2)CCCCC1` (stereo not drawn) [Oxapium iodide], the midpoint of inhibition, the IC50, lay at 14 µM.

In turn, `O=c1[nH]c2ccccc2n1CCCN1CCN(C(c2ccccc2)c2ccccc2)CC1` [Oxatomide] had a 50% inhibitory concentration (IC50) of 0.442 µM.

`CCOc1cc(Oc2ccc(C(F)(F)F)cc2Cl)ccc1[N+](=O)[O-]` [Oxyfluorfen]: inhibition was half-maximal at 21.9 µM (IC50).

On to `CN1CCCN=C1COC(=O)C(O)(c1ccccc1)C1CCCCC1` (stereo not drawn) [Oxyphencyclimine hydrochloride], for which half-maximal inhibition (IC50) required 5.15 µM. This IC50 lies about 4.3-fold lower than the previous one.

Turning to `Cc1cc(CCN2CCN(c3nsc4ccccc34)CC2)cc2c1NC(=O)CC2(C)C` [PD 0343701], it took 16.1 µM to reach half-maximal inhibition (IC50).

Consider `COc1ccnc(C[S+]([O-])c2nc3ccc(OC(F)F)cc3[nH]2)c1OC` (stereo not drawn) [Pantoprazole sodium], for which the IC50 was 49.3 µM.

With `OC(c1ccc(Cl)cc1)(c1ccc(Cl)cc1)c1cccnc1` [Parinol], the IC50 is 20.3 µM.

In the case of `O=C(Nc1ccccc1)N(Cc1ccc(Cl)cc1)C1CCCC1` [Pencycuron], the concentration for half-maximal inhibition (IC50) is 33.4 µM.

Take `OC1(c2ccc(Cl)c(C(F)(F)F)c2)CCN(CCCC(c2ccc(F)cc2)c2ccc(F)cc2)CC1` [Penfluridol]: the IC50 was 0.239 µM.

`CCCCCC1Nc2cc(C(F)(F)F)c(S(N)(=O)=O)cc2S(=O)(=O)N1` (stereo not drawn) [Penflutizide] had an IC50 of 23 µM.

The molecule `BrC(Br)C(Br)(Br)Br` [Pentabromoethane] gave an IC50 of 49.3 µM.

Molecule `CCCN1C[C@H](CSC)C[C@@H]2c3cccc4[nH]cc(c34)C[C@H]21` [Pergolide methanesulfonate] had an IC50 of 7.56 µM. This IC50 is about 6.5-fold lower than that of the molecule before.

For `O=C1[C@H]2CCCC[C@H]2C(=O)N1CCCCN1CCN(c2nsc3ccccc23)CC1` [Perospirone hydrochloride], the 50% inhibitory concentration (IC50) was 8.49 µM. This IC50 and that of the molecule before are within 1.5-fold of each other.

`CCc1cc(SCc2sc(-c3ccc(C(F)(F)F)cc3)nc2CN2CCN(c3ccc(OC)cc3)CC2)ccc1OCC(=O)O` [PharmaGSID_47315] showed an IC50 of 3.34 µM.

Turning to `O=C1c2ccccc2C(=O)N1CCc1noc(-c2ccc(CN3CCCCCC3)s2)n1` [PharmaGSID_48172], 23.4 µM corresponded to half-maximal inhibition (IC50).

Molecule `Cc1[nH]nc2c1N=C(c1ccccc1Cl)c1cc([N+](=O)[O-])ccc1N2` [PharmaGSID_48505] had an IC50 of 11.4 µM.

`CN1C(=O)N(c2ccccc2Br)Cc2cnc(Nc3ccc4c(c3)OCC(CO)O4)nc21` (stereo not drawn) [PharmaGSID_48519] registered an IC50 of 43.6 µM.

Molecule `CCCC[C@H]1CN(CC2CCOCC2)C(=O)OC12CCN(C1(C)CCN(C(=O)c3c(C)ncnc3C)CC1)CC2` [PharmaGSID_48521] showed a half-maximal inhibitory concentration (IC50) of 13.6 µM. Compared with the last molecule, the IC50 is about 3.2-fold lower.

Molecule `O=C(C=Cc1ccccc1)OCCc1ccccc1` [Phenethyl cinnamate] gave a half-inhibitory concentration (IC50) of 36 µM.

Turning to `S=C=NCCc1ccccc1` [Phenethyl isothiocyanate], the IC50 was 16.8 µM. Against the preceding molecule, the IC50 is about 2.1-fold lower.

Turning to `c1ccc2c(c1)Oc1ccccc1S2` [Phenoxathiin], the IC50 was 24.5 µM. The IC50 values of the last two molecules are within 1.5-fold of each other.

`O=C(Oc1ccccc1)c1ccc2ccccc2c1O` [Phenyl 1-hydroxy-2-naphthoate]: the IC50 is 49 µM.

The molecule `CN(C)CCOc1ccccc1Cc1ccccc1` [Phenyltoloxamine citrate] had an IC50 of 8.49 µM.

Molecule `CCOP(=S)(OCC)SCn1c(=O)oc2cc(Cl)ccc21` [Phosalone] showed a 50% inhibitory concentration (IC50) of 23.5 µM. This IC50 is about 2.8-fold higher than that of the molecule before.

Molecule `CN1CCC(=C2c3ccccc3Sc3ccccc32)CC1` [Pimethixene maleate] had a half-maximal inhibitory concentration (IC50) of 9.89 µM.

The molecule `COc1cc2c(cc1OC)C(C(C(=O)N(CCc1ccc(OC)c(OC)c1OC)CCc1ccc(OC)c(OC)c1OC)c1ccccc1)=NCC2` (stereo not drawn) [Pinokalant hydrochloride] showed an IC50 of 20.1 µM. This IC50 is about 2-fold higher than that of the molecule before.

`NC(=O)C1(N2CCCCC2)CCN(CCCC(=O)c2ccc(F)cc2)CC1` [Pipamperone dihydrochloride] had an IC50 of 20.1 µM.

Turning to `CC(=O)c1ccc2c(c1)N(CCCN1CCC(CCO)CC1)c1ccccc1S2` [Piperacetazine], the IC50 is 2.39 µM.

As for `CCCCCCCC[S+]([O-])C(C)Cc1ccc2c(c1)OCO2` (stereo not drawn) [Piperonyl sulfoxide], the IC50 was 38.2 µM.

In turn, `O=C1OC(CCN2CCCCC2)OC1(c1ccccc1)c1ccccc1` (stereo not drawn) [Pipoxolan hydrochloride] showed a half-inhibitory concentration (IC50) of 1.25 µM.

In turn, `Cc1nc2ccccn2c(=O)c1CCN1CCC(C(=O)c2ccc(F)cc2)CC1` [Pirenperone] gave an IC50 of 6.74 µM.

For the molecule `CCN(CC)c1nc(C)cc(OP(=S)(OC)OC)n1` [Pirimiphos-methyl], the concentration for half-maximal inhibition (IC50) was 50.9 µM.

In turn, `CN1CCC(=C2c3ccccc3CCc3sccc32)CC1` [Pizotyline] showed an IC50 of 10.3 µM.

Molecule `CCCCCCCCCCCCOCCOCCOCCOCCOCCOCCOCCOCCOCCO` [Polyoxyethylene (9) lauryl ether] had an IC50 of 21.3 µM.

In turn, `CN1C(CSCC(F)(F)F)Nc2cc(Cl)c(S(N)(=O)=O)cc2S1(=O)=O` (stereo not drawn) [Polythiazide] showed a half-inhibitory concentration (IC50) of 19.7 µM.

On to `CC[C@@H]([C@H](C)O)n1ncn(-c2ccc(N3CCN(c4ccc(OC[C@@H]5CO[C@@](Cn6cncn6)(c6ccc(F)cc6F)C5)cc4)CC3)cc2)c1=O` [Posaconazole], for which the IC50 is 12.9 µM.

The molecule `NC(=O)c1nc(-c2cccc(-c3cc(F)ccc3OCC(F)(F)C(F)(F)F)c2)n[nH]1` [Potassium 5-carbamoyl-3-[5'-fluoro-2'-(2,2,3,3,3-pentafluoropropoxy)-3-biphenylyl]-1,2,4-triazol-1-ide hydrate (1:1:1)] gave a half-inhibitory concentration (IC50) of 47.1 µM.

The molecule `O=C(N[C@H]1N=C(c2ccccc2F)c2cccc3c2N(CC3)C1=O)c1cc2ccccc2[nH]1` [Pranazepide] had an IC50 of 7.86 µM.

Consider `O=C1CN=C(c2ccccc2)c2cc(Cl)ccc2N1CC1CC1` [Prazepam], for which the IC50 was 23 µM.

For the molecule `CC[N+]1(CC)CCC(=C(c2ccccc2)c2ccccc2)C1C` (stereo not drawn) [Prifinium bromide], the IC50 is 20.5 µM.

Consider `CCCC(C(=O)OCCN(CC)CC)(c1ccccc1)c1ccccc1` [Proadifen hydrochloride], for which the concentration for half-maximal inhibition (IC50) is 7.28 µM.

In turn, `CCCN(CCOc1c(Cl)cc(Cl)cc1Cl)C(=O)n1ccnc1` [Prochloraz] gave an IC50 of 20.3 µM.

In turn, `CCCN(CCC)c1c([N+](=O)[O-])cc(C(F)(F)F)c(N)c1[N+](=O)[O-]` [Prodiamine] had an IC50 of 37.3 µM.

In turn, `CCCN(CCC)C(=O)C(CCC(=O)OCCCN1CCN(CCOC(=O)Cc2c(C)n(C(=O)c3ccc(Cl)cc3)c3ccc(OC)cc23)CC1)NC(=O)c1ccccc1` (stereo not drawn) [Proglumetacin] gave a 50% inhibitory concentration (IC50) of 0.365 µM.

Molecule `[H]/N=C(\N/C(=N/[H])Nc1ccc(Cl)cc1)NC(C)C` [Proguanil hydrochloride] gave an IC50 of 20.1 µM.

For `CN(C)CCCN1c2ccccc2Sc2ccccc21` [Promazine hydrochloride], the IC50 was 9.52 µM. Against the preceding molecule, the IC50 is about 2.1-fold lower.

With `CC(CN1c2ccccc2Sc2ccccc21)N(C)C` (stereo not drawn) [Promethazine hydrochloride], 23 µM corresponded to half-maximal inhibition (IC50).

`CC(CN1c2ccccc2Sc2ccccc21)N(C)C` (stereo not drawn) [Promethazine] had a concentration for half-maximal inhibition (IC50) of 19.7 µM.

The molecule `C#CCOS(=O)OC1CCCCC1Oc1ccc(C(C)(C)C)cc1` (stereo not drawn) [Propargite] had a concentration for half-maximal inhibition (IC50) of 20.7 µM.

With `CCC(=O)c1ccc2c(c1)N(CCCN(C)C)c1ccccc1S2` [Propionylpromazine hydrochloride], the concentration for half-maximal inhibition (IC50) is 9.16 µM. Against the preceding molecule, the IC50 is about 2.3-fold lower.

The molecule `CCCOC(C(=O)OC1CCN(C)CC1)(c1ccccc1)c1ccccc1` [Propiverine hydrochloride] gave an IC50 of 14.2 µM.

Consider `O=C(CCN1CCC(c2ccccc2)C1)c1ccc2c(c1)OCCO2` (stereo not drawn) [Proroxan], for which the IC50 is 17.6 µM.

In turn, `CCCSSC(CCO)=C(C)N(C=O)Cc1cnc(C)nc1N` [Prosultiamine] showed an IC50 of 10.7 µM.

As to `CNCCCC1c2ccccc2C=Cc2ccccc21` [Protriptyline hydrochloride], half-maximal inhibition (IC50) required 23.9 µM.

Consider `CCOC(=O)COc1cc(-c2nn(C)c(OC(F)F)c2Cl)c(F)cc1Cl` [Pyraflufen-ethyl], for which it took 33.4 µM to reach half-maximal inhibition (IC50).

Molecule `CCOC(=O)c1cn2nc(OP(=S)(OCC)OCC)cc2nc1C` [Pyrazophos] had an IC50 of 51.9 µM. Compared with the last molecule, the IC50 is about 1.6-fold higher.

With `COc1ccc(CN(CCN(C)C)c2ccccn2)cc1` [Pyrilamine maleate], the 50% inhibitory concentration (IC50) is 20.9 µM.

`COc1ccc(CN(CCN(C)C)c2ccccn2)cc1` [Pyrilamine] had a concentration for half-maximal inhibition (IC50) of 27.4 µM.

For the molecule `CC(COc1ccc(Oc2ccccc2)cc1)Oc1ccccn1` (stereo not drawn) [Pyriproxyfen], the concentration for half-maximal inhibition (IC50) is 21 µM.

Consider `Fc1ccc(Oc2ccnc3cc(Cl)cc(Cl)c23)cc1` [Quinoxyfen], for which the 50% inhibitory concentration (IC50) was 22.7 µM. The IC50 values of the last two molecules are within 1.5-fold of each other.

Molecule `CCOC(=O)C(C)Oc1ccc(Oc2cnc3cc(Cl)ccc3n2)cc1` (stereo not drawn) [Quizalofop-ethyl] gave an IC50 of 17.1 µM.

`Cn1cc(C(=O)[C@@H]2CCc3nc[nH]c3C2)c2ccccc21` [Ramosetron hydrochloride]: it took 20.5 µM to reach half-maximal inhibition (IC50).

On to `COC(=O)[C@H]1[C@H]2C[C@@H]3c4[nH]c5cc(OC)ccc5c4CCN3C[C@H]2C[C@@H](OC(=O)/C=C/c2ccc(O)c(OC)c2)[C@@H]1OC` [Rescimetol], for which half-maximal inhibition (IC50) required 1.57 µM.
